Test results published in PubChem BioAssay AID2060893 (Molecular Pharmacology Branch, DTP, NCI, 2025).

System: K86415-001-R-J1-PDC complex spheroids, viability
Experiment: Anticancer human tumor K86415-001-R-J1-PDC patient-derived lung adenocarcinoma cell line growth inhibition [RAS]
Settings: for IC50: curve of first compound; for viability, T/C: stronger effect = lower value; active = viability on the fitted dose curve at most 10% of control; inactive = the rest
Outline: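 Tumour cells grown as complex spheroids with HUVEC endothelial cells and mesenchymal stem cells, treated with RAS pathway inhibitor combinations. Each agent spans half-log steps from near clinical Cmax, or 10 microM where Cmax is unknown.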
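Note: spheroids exposed to agents for seven days before readout.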

CCc1c2c(nc3ccc(O)cc13)-c1cc3c(c(=O)n1C2)COC(=O)[C@]3(O)CC + C=CC(=O)N1CCN(c2nc(OCC3CCCN3C)nc3c(F)c(-c4nc(N)cc(C)c4C(F)(F)F)c(Cl)cc23)C(C)C1
active: viability, T/C (second compound 0.00316 µM, first compound 0.0949 µM) 8.97% | viability, T/C (second compound 0.00316 µM, first compound 0.3 µM) 4.41% | viability, T/C (second compound 0.01 µM, first compound 0.00949 µM) 11.3% | viability, T/C (second compound 0.01 µM, first compound 0.03 µM) 9.32% | viability, T/C (second compound 0.01 µM, first compound 0.0949 µM) 8.86% | viability, T/C (second compound 0.01 µM, first compound 0.3 µM) 4.64% | viability, T/C (second compound 0.0316 µM, first compound 0.003 µM) 9.35% | viability, T/C (second compound 0.0316 µM, first compound 0.00949 µM) 8.29% | viability, T/C (second compound 0.0316 µM, first compound 0.03 µM) 8.73% | viability, T/C (second compound 0.0316 µM, first compound 0.0949 µM) 8.33% | viability, T/C (second compound 0.0316 µM, first compound 0.3 µM) 4.32% | viability, T/C (second compound 0.1 µM, first compound 0.000949 µM) 8.25% | viability, T/C (second compound 0.1 µM, first compound 0.003 µM) 9.14% | viability, T/C (second compound 0.1 µM, first compound 0.00949 µM) 10.9% | viability, T/C (second compound 0.1 µM, first compound 0.03 µM) 7.98% | viability, T/C (second compound 0.1 µM, first compound 0.0949 µM) 6.67% | viability, T/C (second compound 0.1 µM, first compound 0.3 µM) 3.89% | viability, T/C (second compound 0.316 µM, first compound 0.00949 µM) 9.94% | viability, T/C (second compound 0.316 µM, first compound 0.03 µM) 10.7% | viability, T/C (second compound 0.316 µM, first compound 0.0949 µM) 7.22% | viability, T/C (second compound 0.316 µM, first compound 0.3 µM) 4.36% | viability, T/C (second compound 1 µM, first compound 0.003 µM) 11% | viability, T/C (second compound 1 µM, first compound 0.00949 µM) 8.27% | viability, T/C (second compound 1 µM, first compound 0.03 µM) 8.66% | viability, T/C (second compound 1 µM, first compound 0.0949 µM) 6.75% | viability, T/C (second compound 1 µM, first compound 0.3 µM) 2.88%
inactive: viability, T/C (second compound 0.00316 µM, first compound 0.000949 µM) 19.9% | viability, T/C (second compound 0.00316 µM, first compound 0.003 µM) 18.5% | viability, T/C (second compound 0.00316 µM, first compound 0.00949 µM) 14.5% | viability, T/C (second compound 0.00316 µM, first compound 0.03 µM) 13.7% | viability, T/C (second compound 0.01 µM, first compound 0.000949 µM) 11.6% | viability, T/C (second compound 0.01 µM, first compound 0.003 µM) 10.7% | viability, T/C (second compound 0.0316 µM, first compound 0.000949 µM) 10.1% | viability, T/C (second compound 0.316 µM, first compound 0.000949 µM) 10% | viability, T/C (second compound 0.316 µM, first compound 0.003 µM) 9.61% | viability, T/C (second compound 1 µM, first compound 0.000949 µM) 9.61%
< 0.949 nM: IC50 (second compound 0.00316 µM) | IC50 (second compound 0.01 µM) | IC50 (second compound 0.0316 µM) | IC50 (second compound 0.1 µM) | IC50 (second compound 0.316 µM) | IC50 (second compound 1 µM)

Nc1ccn(C2OC(CO)C(O)C2(F)F)c(=O)n1 (centres undefined) + C=CC(=O)N1CCN(c2nc(OCC3CCCN3C)nc3c(F)c(-c4nc(N)cc(C)c4C(F)(F)F)c(Cl)cc23)C(C)C1
inactive: viability, T/C (second compound 0.00316 µM, first compound 0.00316 µM) 18.1% | viability, T/C (second compound 0.00316 µM, first compound 0.01 µM) 16.6% | viability, T/C (second compound 0.00316 µM, first compound 0.0316 µM) 14.9% | viability, T/C (second compound 0.00316 µM, first compound 0.1 µM) 14.7% | viability, T/C (second compound 0.00316 µM, first compound 0.316 µM) 17.8% | viability, T/C (second compound 0.00316 µM, first compound 1 µM) 17.2% | viability, T/C (second compound 0.01 µM, first compound 0.00316 µM) 16.1% | viability, T/C (second compound 0.01 µM, first compound 0.01 µM) 12.8% | viability, T/C (second compound 0.01 µM, first compound 0.0316 µM) 9.45% | viability, T/C (second compound 0.01 µM, first compound 0.1 µM) 11.5% | viability, T/C (second compound 0.01 µM, first compound 0.316 µM) 9.75% | viability, T/C (second compound 0.01 µM, first compound 1 µM) 11.1% | viability, T/C (second compound 0.0316 µM, first compound 0.00316 µM) 11% | viability, T/C (second compound 0.0316 µM, first compound 0.01 µM) 12.7% | viability, T/C (second compound 0.0316 µM, first compound 0.0316 µM) 10.5% | viability, T/C (second compound 0.0316 µM, first compound 0.1 µM) 9.28% | viability, T/C (second compound 0.0316 µM, first compound 0.316 µM) 11% | viability, T/C (second compound 0.0316 µM, first compound 1 µM) 10.4% | viability, T/C (second compound 0.1 µM, first compound 0.00316 µM) 9.91% | viability, T/C (second compound 0.1 µM, first compound 0.01 µM) 9.83% | viability, T/C (second compound 0.1 µM, first compound 0.0316 µM) 9.05% | viability, T/C (second compound 0.1 µM, first compound 0.1 µM) 9.1% | viability, T/C (second compound 0.1 µM, first compound 0.316 µM) 11.7% | viability, T/C (second compound 0.1 µM, first compound 1 µM) 11.4% | viability, T/C (second compound 0.316 µM, first compound 0.00316 µM) 11% | viability, T/C (second compound 0.316 µM, first compound 0.01 µM) 10.5% | viability, T/C (second compound 0.316 µM, first compound 0.0316 µM) 11% | viability, T/C (second compound 0.316 µM, first compound 0.1 µM) 8.77% | viability, T/C (second compound 0.316 µM, first compound 0.316 µM) 11.1% | viability, T/C (second compound 0.316 µM, first compound 1 µM) 8.63% | viability, T/C (second compound 1 µM, first compound 0.00316 µM) 10.2% | viability, T/C (second compound 1 µM, first compound 0.01 µM) 11.9% | viability, T/C (second compound 1 µM, first compound 0.0316 µM) 10.3% | viability, T/C (second compound 1 µM, first compound 0.1 µM) 11.7% | viability, T/C (second compound 1 µM, first compound 0.316 µM) 11.7% | viability, T/C (second compound 1 µM, first compound 1 µM) 8.61%
< 3.16 nM: IC50 (second compound 0.00316 µM) | IC50 (second compound 0.01 µM) | IC50 (second compound 0.0316 µM) | IC50 (second compound 0.1 µM) | IC50 (second compound 0.316 µM) | IC50 (second compound 1 µM)
